As a reminder, the IC50 is the concentration needed to halve the response being measured.

This assay deals with BTK (Homo sapiens, UniProt Q06187). As to the kind of experiment: Inhibitory activity against BTK (ADP-Glo + BTK Kinase enzyme system kit). For orientation: In ADP-Glo the light output rises with the ADP produced.
Sequence of BTK (Q06187 whole entry): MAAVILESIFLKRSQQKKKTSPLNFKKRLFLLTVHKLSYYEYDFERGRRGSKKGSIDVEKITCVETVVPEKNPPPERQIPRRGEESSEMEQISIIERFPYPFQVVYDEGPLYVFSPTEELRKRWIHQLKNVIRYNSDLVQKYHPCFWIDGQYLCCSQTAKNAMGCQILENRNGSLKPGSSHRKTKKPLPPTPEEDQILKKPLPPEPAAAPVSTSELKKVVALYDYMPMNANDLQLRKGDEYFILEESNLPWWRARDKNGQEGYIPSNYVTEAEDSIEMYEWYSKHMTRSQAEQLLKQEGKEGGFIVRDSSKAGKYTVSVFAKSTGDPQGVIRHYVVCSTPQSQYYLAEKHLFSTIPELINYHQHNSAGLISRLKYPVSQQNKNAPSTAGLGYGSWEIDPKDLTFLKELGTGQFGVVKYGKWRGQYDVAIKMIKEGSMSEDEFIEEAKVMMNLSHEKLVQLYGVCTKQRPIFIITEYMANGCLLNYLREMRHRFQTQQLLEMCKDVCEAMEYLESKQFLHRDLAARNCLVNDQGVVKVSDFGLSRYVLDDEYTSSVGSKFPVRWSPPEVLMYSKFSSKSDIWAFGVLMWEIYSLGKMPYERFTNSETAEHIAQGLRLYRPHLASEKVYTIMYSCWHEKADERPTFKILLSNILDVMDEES
Consider `C/C=C/C(=O)N1CC2CC1C(n1nc(-c3ccc(Oc4ccccc4)cc3)c3c(N)ncnc31)C2` (stereo not shown) [Ex. 3, (E)-1-(6-(4-amino-3-(4-phenoxyphenyl)-1H-pyrazolo[3,4-d]pyrimidin-1-yl)-2-azabicyclo[2.2.1]heptan-2-yl)but-2-en-1-one], for which the IC50 turned out to be 202 nM. `CC#CC(=O)N1CC2CC1C(n1nc(-c3ccc(Oc4ccccc4)cc3)c3c(N)ncnc31)C2` (stereo not shown) [Ex. 5, 1-(6-(4-amino-3-(4-phenoxyphenyl)-1H-pyrazolo[3,4-d]pyrimidin-1-yl)-2-azabicyclo[2.2.1]heptan-2-yl)but-2-yn-1-one]: the IC50 amounted to 27.6 nM. `C#CC(=O)N1CC2CC1C(n1nc(-c3ccc(C(=O)Nc4cc(C(F)(F)F)ccn4)cc3)c3c(N)ncnc31)C2` (stereo not shown) [Ex. 6, 4-(4-amino-1-(2-propioloyl-2-azabicyclo[2.2.1]heptan-6-yl)-1H-pyrazolo[3,4-d]pyrimidin-3-yl)-N-(4-(trifluoromethyl)pyridin-2-yl)benzamide]: the IC50 turned out to be 22.7 nM. The figure for `C#CC(=O)N1CC2CC1C(n1nc(-c3cccc(C(=O)Nc4ccc(C(C)C)cc4)c3)c3c(N)ncnc31)C2` (stereo not shown) [Ex. 7, 3-(4-amino-1-(2-propioloyl-2-azabicyclo[2.2.1]heptan-6-yl)-1H-pyrazolo[3,4-d]pyrimidin-3-yl)-N-(4-isopropylphenyl)benzamide] is 31.6 nM; for `C=CC(=O)N1CC2CC1C(n1nc(-c3cccc(C(=O)Nc4ccc(C(C)C)cc4)c3)c3c(N)ncnc31)C2` (stereo not shown) [Ex. 8, 3-(1-(2-acryloyl-2-azabicyclo[2.2.1]heptan-6-yl)-4-amino-1H-pyrazolo[3,4-d]pyrimidin-3-yl)-N-(4-isopropylphenyl)benzamide] it is 139 nM. For the compound `C#CC(=O)N1CC2CC1C(n1nc(-c3cccc(C(=O)Nc4ccc(C(C)C)c(C)c4)c3)c3c(N)ncnc31)C2` (stereo not shown) [Ex. 9, 3-(4-amino-1-(2-propioloyl-2-azabicyclo[2.2.1]heptan-6-yl)-1H-pyrazolo[3,4-d]pyrimidin-3-yl)-N-(4-isopropyl-3-methylphenyl)benzamide], the IC50 came to 53.8 nM. With `C=CC(=O)N1CC2CC1C(n1nc(-c3cccc(C(=O)Nc4ccc(C(C)C)c(C)c4)c3)c3c(N)ncnc31)C2` (stereo not shown) [Ex. 10, 3-(1-(2-acryloyl-2-azabicyclo[2.2.1]heptan-6-yl)-4-amino-1H-pyrazolo[3,4-d]pyrimidin-3-yl)-N-(4-isopropyl-3-methylphenyl)benzamide], the IC50 came to 88 nM. Turning to `C#CC(=O)N1CC2CC1CC2n1nc(-c2ccc(Oc3ccccc3)cc2)c2c(N)ncnc21` (stereo not shown) [Ex. 11, 1-(5-(4-amino-3-(4-phenoxyphenyl)-1H-pyrazolo[3,4-d]pyrimidin-1-yl)-2-azabicyclo[2.2.1]heptan-2-yl)prop-2-yn-1-one], the IC50 turned out to be 2.8 nM.

As for `C#CC(=O)N1C[C@@H]2C[C@H]1C[C@H]2n1nc(-c2ccc(Oc3ccccc3)cc2)c2c(N)ncnc21` [Ex. 13, 1-((1S,4S,5R)-5-(4-amino-3-(4-phenoxyphenyl)-1H-pyrazolo[3,4-d]pyrimidin-1-yl)-2-azabicyclo[2.2.1]heptan-2-yl)prop-2-yn-1-one], the half-maximal inhibitory concentration (IC50) stood at 2 nM.

Take `CCC#CC(=O)N1CC2CC1C(n1nc(-c3ccc(Oc4ccccc4)cc3)c3c(N)ncnc31)C2` (stereo not shown) [Ex. 16, 1-(6-(4-amino-3-(4-phenoxyphenyl)-1H-pyrazolo[3,4-d]pyrimidin-1-yl)-2-azabicyclo[2.2.1]heptan-2-yl)pent-2-yn-1-one]: the concentration for half-maximal inhibition (IC50) was greater than 1000 nM.

Turning to `C#CC(=O)N1CC2CC1C(n1nc(-c3cccc(C(=O)Nc4ccccc4)c3)c3c(N)ncnc31)C2` (stereo not shown) [Ex. 18, 3-(4-amino-1-(2-propioloyl-2-azabicyclo[2.2.1]heptan-6-yl)-1H-pyrazolo[3,4-d]pyrimidin-3-yl)-N-phenylbenzamide], the IC50 was determined as 6.9 nM. Turning to `C=CC(=O)N1CC2CC1C(n1nc(-c3ccc(C(=O)Nc4ccccc4)cc3)c3c(N)ncnc31)C2` (stereo not shown) [Ex. 19, 4-(1-(2-acryloyl-2-azabicyclo[2.2.1]heptan-6-yl)-4-amino-1H-pyrazolo[3,4-d]pyrimidin-3-yl)-N-phenylbenzamide], the IC50 was 10.8 nM. `CC#CC(=O)N1CC2CC1C(n1nc(-c3ccc(C(=O)Nc4ccccc4)cc3)c3c(N)ncnc31)C2` (stereo not shown) [Ex. 20, 4-(4-amino-1-(2-(but-2-ynoyl)-2-azabicyclo[2.2.1]heptan-6-yl)-1H-pyrazolo[3,4-d]pyrimidin-3-yl)-N-phenylbenzamide]: the IC50 was greater than 1000 nM. In the case of `C=CC(=O)N1CC2CC1C(n1nc(-c3cccc(C(=O)Nc4ccccc4)c3)c3c(N)ncnc31)C2` (stereo not shown) [Ex. 21, 3-(1-(2-acryloyl-2-azabicyclo[2.2.1]heptan-6-yl)-4-amino-1H-pyrazolo[3,4-d]pyrimidin-3-yl)-N-phenylbenzamide], the IC50 was 63 nM. Turning to `CC#CC(=O)N1CC2CC1C(n1nc(-c3cccc(C(=O)Nc4ccccc4)c3)c3c(N)ncnc31)C2` (stereo not shown) [Ex. 22, 3-(4-amino-1-(2-but-2-ynoyl-2-azabicyclo[2.2.1]heptan-6-yl)-1H-pyrazolo[3,4-d]pyrimidin-3-yl)-N-phenylbenzamide], the IC50 is greater than 1000 nM. The figure for `C=CC(=O)N1CC2CC1CC2n1nc(-c2ccc(C(=O)Nc3ccccc3)cc2)c2c(N)ncnc21` (stereo not shown) [Ex. 23, 4-(1-(2-acryloyl-2-azabicyclo[2.2.1]heptan-5-yl)-4-amino-1H-pyrazolo[3,4-d]pyrimidin-3-yl)-N-phenylbenzamide] is 78.8 nM; for `C=CC(=O)N1CC2CC1CC2n1nc(-c2cccc(C(=O)Nc3ccccc3)c2)c2c(N)ncnc21` (stereo not shown) [Ex. 24, 3-(1-(2-acryloyl-2-azabicyclo[2.2.1]heptan-5-yl)-4-amino-1H-pyrazolo[3,4-d]pyrimidin-3-yl)-N-phenylbenzamide] it is 560 nM; for `C=CC(=O)N1CC2CC1CC2n1nc(-c2cccc(Oc3ccccc3)c2)c2c(N)ncnc21` (stereo not shown) [Ex. 25, 1-(5-(4-amino-3-(3-phenoxyphenyl)-1H-pyrazolo[3,4-d]pyrimidin-1-yl)-2-azabicyclo[2.2.1]heptan-2-yl)prop-2-en-1-one] it is 72.3 nM. `C=CC(=O)N1CC2CC1C(n1nc(-c3cccc(C(=O)Nc4ccc(C(F)(F)F)nc4)c3)c3c(N)ncnc31)C2` (stereo not shown) [Ex. 26, 3-(1-(2-acryloyl-2-azabicyclo[2.2.1]heptan-6-yl)-4-amino-1H-pyrazolo[3,4-d]pyrimidin-3-yl)-N-(6-(trifluoromethyl)pyridin-3-yl)benzamide]: the IC50 was 295 nM. `C=CC(=O)N1CC2CC1C(n1nc(-c3ccc(COC)cc3)c3c(N)ncnc31)C2` (stereo not shown) [Ex. 27, 1-(6-(4-amino-3-(4-(methoxymethyl)phenyl)-1H-pyrazolo[3,4-d]pyrimidin-1-yl)-2-azabicyclo[2.2.1]heptan-2-yl)prop-2-en-1-one]: the half-inhibitory concentration (IC50) is 29.6 nM. `Nc1ncnc2c1c(-c1ccc(Oc3ccccc3)cc1)nn2C1CC2CC1N(C(=O)C#CC1CC1)C2` (stereo not shown) [Ex. 28, 1-(6-(4-amino-3-(4-phenoxyphenyl)-1H-pyrazolo[3,4-d]pyrimidin-1-yl)-2-azabicyclo[2.2.1]heptan-2-yl)-3-cyclopropylprop-2-yn-1-one]: the IC50 is 25.2 nM.

Regarding `C=CC(=O)N1CC2CC1C(n1nc(-c3ccc(C(=O)Nc4cc(C(F)(F)F)ccn4)cc3)c3c(N)ncnc31)C2` (stereo not shown) [Ex. 29, 4-(1-(2-acryloyl-2-azabicyclo[2.2.1]heptan-6-yl)-4-amino-1H-pyrazolo[3,4-d]pyrimidin-3-yl)-N-(4-(trifluoromethyl)pyridin-2-yl)benzamide], the IC50 was 16.9 nM. `C#CC(=O)N1CC2CC1C(n1nc(-c3ccc(-c4ccccc4)cc3)c3c(N)ncnc31)C2` (stereo not shown) [Ex. 30, 1-(6-(4-amino-3-(biphenyl-4-yl)-1H-pyrazolo[3,4-d]pyrimidin-1-yl)-2-azabicyclo[2.2.1]heptan-2-yl)prop-2-yn-1-one]: the IC50 was greater than 1000 nM. In the case of `C#CC(=O)N1CC2CC1C(n1nc(-c3ccc(Nc4ccccc4)cc3)c3c(N)ncnc31)C2` (stereo not shown) [Ex. 31, 1-(6-(4-amino-3-(4-(phenylamino)phenyl)-1H-pyrazolo[3,4-d]pyrimidin-1-yl)-2-azabicyclo[2.2.1]heptan-2-yl)prop-2-yn-1-one], the IC50 came to 12.5 nM.

For `C=CC(=O)N1CC2CC1C(n1nc(-c3ccc(Oc4ccncc4)cc3)c3c(N)ncnc31)C2` (stereo not shown) [Ex. 36, 1-(6-(4-amino-3-(4-(pyridin-4-yloxy)phenyl)-1H-pyrazolo[3,4-d]pyrimidin-1-yl)-2-azabicyclo[2.2.1]heptan-2-yl)prop-2-en-1-one], the IC50 was greater than 1000 nM. `C=CC(=O)N1CC2CC1C(n1nc(-c3ccc(NC(=O)c4ccccc4)cc3)c3c(N)ncnc31)C2` (stereo not shown) [Ex. 37, N-(4-(1-(2-acryloyl-2-azabicyclo[2.2.1]heptan-6-yl)-4-amino-1H-pyrazolo[3,4-d]pyrimidin-3-yl)phenyl)benzamide]: the IC50 was 5.1 nM. Consider `C=CC(=O)N1CC2CC1C(n1nc(-c3ccc(NC(=O)c4ccccn4)cc3)c3c(N)ncnc31)C2` (stereo not shown) [Ex. 38, N-(4-(1-(2-acryloyl-2-azabicyclo[2.2.1]heptan-6-yl)-4-amino-1H-pyrazolo[3,4-d]pyrimidin-3-yl)phenyl)picolinamide], for which the half-inhibitory concentration (IC50) was 8.2 nM. The figure for `C=CC(=O)N1CC2CC1C(n1nc(-c3ccc(NC(=O)Nc4ccccc4)cc3)c3c(N)ncnc31)C2` (stereo not shown) [Ex. 39, 1-(4-(1-(2-acryloyl-2-azabicyclo[2.2.1]heptan-6-yl)-4-amino-1H-pyrazolo[3,4-d]pyrimidin-3-yl)phenyl)-3-phenylurea] is 15.2 nM; for `C=CC(=O)N1CC2CC1C(n1nc(-c3ccc(Oc4cccc(C)c4)cc3)c3c(N)ncnc31)C2` (stereo not shown) [Ex. 40, 1-(6-(4-amino-3-(4-(m-tolyloxy)phenyl)-1H-pyrazolo[3,4-d]pyrimidin-1-yl)-2-azabicyclo[2.2.1]heptan-2-yl)prop-2-en-1-one] it is 5.5 nM. Regarding `Nc1ncnc2c1c(-c1ccc(Oc3ccccc3)cc1)nn2C1CC2CC1N(C(=O)/C=C/CBr)C2` (stereo not shown) [Ex. 44, (E)-1-(6-(4-amino-3-(4-phenoxyphenyl)-1H-pyrazolo[3,4-d]pyrimidin-1-yl)-2-azabicyclo[2.2.1]heptan-2-yl)-4-bromobut-2-en-1-one], the IC50 turned out to be 5.9 nM. With `CN(C)C/C=C/C(=O)N1CC2CC1C(n1nc(-c3ccc(Oc4ccccc4)cc3)c3c(N)ncnc31)C2` (stereo not shown) [Ex. 45, (E)-1-(6-(4-amino-3-(4-phenoxyphenyl)-1H-pyrazolo[3,4-d]pyrimidin-1-yl)-2-azabicyclo[2.2.1]heptan-2-yl)-4-(dimethylamino)but-2-en-1-one], the IC50 was 11.4 nM.

Values taken from patent publication US10399988B2, “4-aminopyrazolo[3,4-d]pyrimidinylazabicyclo derivatives and pharmaceutical composition comprising the same” (Daewoong Pharmaceutical Co., Ltd., priority 2016, dated 2019).
